Test results taken from paper PMC7016952, “Characterization of the Menin-MLL Interaction as Therapeutic Cancer Target” (Cancers, 2020).
pIC50: −log10 of the molar value.

Experiments:
[1] = tested on: MCF7 xenograft; experiment: MCF7 xenograft efficacy; format: in vivo, mice
Description: (§1) Tumor cells were injected subcutaneously into the flanks of 6- to 9-week old animals. Efficacy studies in xenograft models were performed at Bayer or EPO GmbH (Berlin-Buch, Germany) using NMRI nu/nu, SCID, BALB/c Nude female mice or SCID male mice (VCaP tumors). All animal studies were conducted in accordance with the animal welfare laws and were approved by the State Office for Health and Social Affairs Berlin (LAGeSo). Experiments were run under the animal license B3600a0007. Compound treatment started at a predefined tumor size or burden or at a predefined day after cell inoculation. BAY-155 was administered orally (p.o.) at various doses and regorafenib, tamoxifen and enzalutamide (resuspended in PEG400/H2O 6/4 or PEG400/EtOH 9/1) were used as control treatment for RKO, MCF7 and VCaP xenografts, respectively. Subcutaneous tumor volumes were determined by caliper measurement.

[2] = biological target: T1, menin-MLL interaction (Homo sapiens, UniProt O00255); design: method as in PMID 31253180; details: read-out: Potency IC50 Menin-MLL binding; TR-FRET; previously reported; cited from earlier work
T1 construct: recombinant full length, His-tagged menin
T1 sequence (O00255 1-610): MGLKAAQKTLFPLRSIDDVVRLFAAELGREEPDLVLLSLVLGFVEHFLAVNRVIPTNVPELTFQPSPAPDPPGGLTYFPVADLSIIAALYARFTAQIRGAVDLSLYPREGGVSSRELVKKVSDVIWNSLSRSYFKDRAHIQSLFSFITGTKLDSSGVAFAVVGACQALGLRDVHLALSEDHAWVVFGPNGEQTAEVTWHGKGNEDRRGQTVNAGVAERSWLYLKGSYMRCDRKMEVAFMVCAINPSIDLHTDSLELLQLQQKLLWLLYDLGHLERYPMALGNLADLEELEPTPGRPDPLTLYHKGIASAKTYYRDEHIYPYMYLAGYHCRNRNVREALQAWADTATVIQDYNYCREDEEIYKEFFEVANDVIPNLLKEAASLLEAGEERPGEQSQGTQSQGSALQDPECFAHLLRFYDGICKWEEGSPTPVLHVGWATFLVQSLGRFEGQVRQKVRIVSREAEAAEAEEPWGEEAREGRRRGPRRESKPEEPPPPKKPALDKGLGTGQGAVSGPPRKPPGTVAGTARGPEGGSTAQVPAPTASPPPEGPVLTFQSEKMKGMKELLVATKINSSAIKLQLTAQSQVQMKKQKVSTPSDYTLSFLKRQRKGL

[3] = tested on: VCaP xenograft; experiment: VCaP xenograft efficacy; format: in vivo, mice
Description: as §1

[4] = tested on: AR signaling pathway genes in VCaP tumor samples; experiment: Ex vivo gene expression in VCaP xenografts; design: species or system mice; details: 52 days of treatment
Description: (§2) Total RNA was isolated using RNeasy-Plus Mini kit (Qiagen, Hilden, Germany). RNA (1 μg) was reverse transcribed using SuperScript III First-Strand Synthesis SuperMix (Life Technologies) and the generated cDNA was analyzed with commercial primers (Supplementary Materials Table S1) by qRT-PCR using TaqMan Fast Advanced Master Mix (Life Technologies). For the RNA-seq study, ZR-75-1, BT474, PANC-1, MiaPaCa-2, 22RV1, JMSU-1, DLD-1, SW1463, LoVo and G401 cells were treated with 5 µM BAY-155 or DMSO for 48 h prior to RNA extraction. After 48 h of 5 µM BAY-155 or DMSO treatment, MCF7, VCaP and LNCaP cells were stimulated for further 12 h with 0.1 nM of E2 (ß-Estradiol) or 1 nM R1881, respectively. MCF7, VCaP and LNCaP cells were cultured in starvation medium (containing 5 µM BAY-155 or DMSO) 6 h before stimulation. RNA was isolated using RNeasy-Plus Mini kit (Qiagen). The purified RNA was used for library preparation (Illumina, San Diego, CA, USA. TruSeq Stranded mRNA Kit) and the generated libraries were sequenced (Illumina, HiSeq2500 HTv4, SR, dual-indexing, 50 cycles).
(§3) Tumors were harvested, dissociated and total RNA was extracted using the TissueLyser (Qiagen, Hilden, Germany) together with RNeasy-Plus Mini kit according to the manufacturer protocol.

[5] = tested on: MCF7 cells; experiment: RNA-seq after E2 stimulation, MCF7; format: cell-based, human
Description: as §2
(§4) RNA-seq reads were aligned to hg38 using STAR aligner. Protein-coding genes with more than 10 reads in more than three samples were used for the analysis (total samples N = 86; genes N = 13,003). DESeq2 was used to find genes differentially expressed upon treatment by the menin inhibitor in each cell line compared to DMSO or hormonal treatment (for MCF-7, LNCaP and VCaP cell lines). […] GSEA analysis was run on the pre-ranked list based on logFC in prostate (VCaP and LNCaP) and breast (MCF7) cell lines. Data are available at GEO under accession number GSE136272.

[6] = tested on: MOLM-13 xenograft; experiment: MOLM-13 xenograft efficacy; format: in vivo, mice; details: p.o.
Description: as §1

[7] = tested on: MEIS1, MNDA and CD11b expression in MV4;11 and MOLM-13 cells; experiment: qRT-PCR of hematopoietic differentiation genes; format: cell-based, human; details: four days of treatment, in comparison to MI-503
Description: as §2

[8] = cited from earlier work
[9] = tested on: LNCaP cells; experiment: RNA-seq after R1881 stimulation, LNCaP; format: cell-based
Description: as §2, §4

[10] = biological target: T1, menin-MLL interaction; experiment: TR-FRET menin-MLL binding assay; details: BAY-155 vs MI-503
[11] = tested on: JMSU-1 cells; experiment: RNA-seq differential gene expression, JMSU-1; format: cell-based; details: JMSU-1, 5 µM, 48 h
Description: as §2
RNA-seq reads were aligned to hg38 using STAR aligner. Protein-coding genes with more than 10 reads in more than three samples were used for the analysis (total samples N = 86; genes N = 13,003). […]

[12] = tested on: ER signaling pathway genes in MCF7 tumor samples; experiment: Ex vivo gene expression in MCF7 xenografts; design: species or system mice; details: 27 days of treatment
Description: as §2, §3

Q: For `Cc1c(CN2CCC3(CC2)CN(c2ncnc4sc(CC(F)(F)F)cc24)C3)ccc2c1cc(C#N)n2CC(N)=O` [BAY-155], which “tumor volume and tumor weight” value [1] is on record?
A: no significant effects

Q: What about the pIC50 [2] of the same molecule?
A: 8.10

Q: What about the “tumor volume and tumor weight” value [3] of the same molecule?
A: no significant effects

Q: And the “FKBP5 and TMPRSS2 expression ex vivo” value [4]?
A: no significant changes

Q: What about the “GSEA of estradiol (E2) up- and down-regulated gene sets” value ([5]; MCF7) of the same molecule?
A: slight reverse regulation

Q: What about the “E2 down-regulated genes significantly changed” value ([5]; MCF7, 5 µM, E2) of the same molecule?
A: 13 genes

Q: And the “E2 up-regulated genes significantly changed” value ([5]; MCF7, 5 µM, E2)?
A: 26 genes

Q: What about the tumor volume [6] of the same molecule?
A: dose-dependent inhibition of tumor volume

Q: And the tumor weight [6]?
A: significant reduction of tumor weight

Q: And the “CD11b and MNDA gene expression” value [7]?
A: up-regulation

Q: And the MEIS1 gene expression [7]?
A: stronger expression down-regulation

Q: And the “Caco2 permeability Papp(A-B)” value ([8]; Caco-2, pH 7.2)?
A: 2.64 ×10⁻⁶ cm/s

Q: And the “Caco2 permeability efflux ratio” value ([8]; Caco-2)?
A: 6.4

Q: What about the “GSEA of androgen-regulated gene sets” value [9] of the same molecule?
A: significant reversal of androgen-induced gene expression changes

Q: What about the “genes down-regulated by androgen stimulation that were reversed” value ([9]; 5 µM, R1881) of the same molecule?
A: 141 genes

Q: What about the “genes up-regulated by androgen stimulation that were reversed” value ([9]; 5 µM, R1881) of the same molecule?
A: 24 genes

Q: What about the “fold better inhibitory IC50 compared to MI-503” value [10] of the same molecule?
A: 10 fold

Q: And the “number of differentially expressed genes” value [11]?
A: 665 genes

Q: What about the “EGR3, GREB1 and PGR1 expression ex vivo” value [12] of the same molecule?
A: no significant effects
